# Laboratory results taken from patent US20260138961A1, “MODULATORS OF MITOCHONDRIAL DNA REPLICATION” (Pretzel Therapeutics, Inc., priority 2022, published 2026).
# Biological target: T1, POLγA:G848S (Homo sapiens, UniProt P54098, G848S)
# T1 sequence (P54098 1-1239 G848S): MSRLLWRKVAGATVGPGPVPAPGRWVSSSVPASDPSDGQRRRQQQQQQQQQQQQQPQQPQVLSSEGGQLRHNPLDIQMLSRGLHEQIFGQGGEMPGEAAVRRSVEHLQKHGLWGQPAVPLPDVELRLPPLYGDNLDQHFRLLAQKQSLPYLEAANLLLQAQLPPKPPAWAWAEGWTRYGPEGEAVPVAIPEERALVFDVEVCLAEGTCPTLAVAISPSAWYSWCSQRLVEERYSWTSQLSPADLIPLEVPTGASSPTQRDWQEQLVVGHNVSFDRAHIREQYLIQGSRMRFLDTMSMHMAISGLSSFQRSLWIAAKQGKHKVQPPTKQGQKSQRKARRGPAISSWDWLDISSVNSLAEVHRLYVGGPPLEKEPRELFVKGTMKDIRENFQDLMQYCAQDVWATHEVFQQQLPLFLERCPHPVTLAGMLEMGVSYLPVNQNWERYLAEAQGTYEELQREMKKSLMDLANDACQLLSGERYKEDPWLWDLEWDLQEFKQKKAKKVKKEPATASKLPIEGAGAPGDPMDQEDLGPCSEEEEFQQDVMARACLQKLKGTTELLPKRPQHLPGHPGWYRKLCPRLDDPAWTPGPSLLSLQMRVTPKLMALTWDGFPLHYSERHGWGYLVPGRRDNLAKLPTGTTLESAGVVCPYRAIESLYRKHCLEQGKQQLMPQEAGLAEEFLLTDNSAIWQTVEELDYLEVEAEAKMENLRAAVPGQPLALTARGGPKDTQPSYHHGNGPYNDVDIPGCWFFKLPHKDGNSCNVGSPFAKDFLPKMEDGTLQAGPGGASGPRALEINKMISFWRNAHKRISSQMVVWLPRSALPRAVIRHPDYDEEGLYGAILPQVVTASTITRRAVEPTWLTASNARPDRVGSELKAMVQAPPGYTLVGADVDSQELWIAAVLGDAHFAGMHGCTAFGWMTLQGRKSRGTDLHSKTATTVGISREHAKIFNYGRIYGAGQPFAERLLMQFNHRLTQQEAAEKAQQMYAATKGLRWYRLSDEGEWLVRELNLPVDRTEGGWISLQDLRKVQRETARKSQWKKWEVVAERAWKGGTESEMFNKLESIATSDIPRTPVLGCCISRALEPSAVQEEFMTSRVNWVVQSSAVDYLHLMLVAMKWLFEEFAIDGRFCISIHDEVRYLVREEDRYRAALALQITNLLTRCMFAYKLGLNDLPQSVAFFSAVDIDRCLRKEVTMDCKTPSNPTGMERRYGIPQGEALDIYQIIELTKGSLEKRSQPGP
# T1 sequence (Q9UHN1 1-485 partner): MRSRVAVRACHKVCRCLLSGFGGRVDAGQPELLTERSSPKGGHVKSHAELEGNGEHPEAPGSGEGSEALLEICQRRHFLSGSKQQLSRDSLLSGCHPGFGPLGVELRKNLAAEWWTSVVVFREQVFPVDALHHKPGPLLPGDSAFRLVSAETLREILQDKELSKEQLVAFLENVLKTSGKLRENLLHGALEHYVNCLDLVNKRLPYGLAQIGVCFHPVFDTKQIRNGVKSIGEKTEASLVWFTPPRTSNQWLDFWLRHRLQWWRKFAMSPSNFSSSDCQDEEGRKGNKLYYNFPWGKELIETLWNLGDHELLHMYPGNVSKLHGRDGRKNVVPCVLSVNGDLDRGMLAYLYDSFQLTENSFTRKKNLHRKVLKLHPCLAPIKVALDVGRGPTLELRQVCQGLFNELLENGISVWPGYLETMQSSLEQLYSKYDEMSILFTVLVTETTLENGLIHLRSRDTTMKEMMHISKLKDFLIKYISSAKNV
# Assay: DNA polymerization assay, POLγA:G848S mutant
# Assay type: biochemical
# Details: stimulation of polymerase activity, primed M13mp18 ssDNA, 37° C. 2 hours; read-out: G848S AC50
row,AC50,Structure (SMILES)
1,> 100 µM,"Cc1cc(S(=O)(=O)Nc2cccc(C(=O)N3CCN(C)CC3)c2)c(C)cc1Cl [Example 52, 4-chloro-2,5-dimethyl-N-(3-(4-methylpiperazine-1-carbonyl)phenyl)benzenesulfonamide]"
2,63 µM,"Cc1cc(S(=O)(=O)Nc2cccc(C(=O)NCCO)c2)c(C)cc1Cl [Example 53, 3-((4-chloro-2,5-dimethylphenyl)sulfonamido)-N-(2-hydroxyethyl)benzamide]"
3,21 µM,"Cc1cc(S(=O)(=O)Nc2cccc(C(=O)N3CCN(C)C[C@H]3C)c2)c(C)cc1Cl [Example 54, (R)-4-chloro-N-(3-(2,4-dimethylpiperazine-1-carbonyl)phenyl)-2,5-dimethylbenzenesulfonamide]"
4,> 100 µM,"Cc1cc(S(=O)(=O)Nc2cccc(C(=O)N3CCN(CCO)CC3)c2)c(C)cc1Cl [Example 55, 4-chloro-N-(3-(4-(2-hydroxyethyl)piperazine-1-carbonyl)phenyl)-2,5-dimethylbenzenesulfonamide]"
5,56 µM,"Cc1cc(S(=O)(=O)Nc2cccc(C(=O)N(C)CCO)c2)c(C)cc1Cl [Example 56, 3-((4-chloro-2,5-dimethylphenyl)sulfonamido)-N-(2-hydoxyethyl)-N-methylbenzamide]"
6,> 100 µM,"Cc1cc(S(=O)(=O)Nc2cccc(C(=O)N3CCC[C@H]3C)c2F)c(C)cc1Cl [Example 57, (R)-4-chloro-N-(2-fluoro-3-(2-methylpyrrolidine-1-carbonyl)phenyl)-2,5-dimethylbenzenesulfonamide]"
7,46 µM,"COCCN(C)C(=O)c1cccc(NS(=O)(=O)c2cc(C)c(Cl)cc2C)c1 [Example 58, 3-((4-chloro-2,5-dimethylphenyl)sulfonamido)-N-(2-methoxyethyl)-N-methylbenzamide]"
8,> 100 µM,"O=S(=O)(Nc1cccc(-c2nccs2)c1)c1ccc(Cl)cc1 [Example 59, 4-chloro-N-(3-(thiazol-2-yl)phenyl)benzenesulfonamide]"
9,2 µM,Cc1ccc(C)c(S(=O)(=O)Nc2cccc(-c3nccs3)c2)c1 [Example 60]
10,> 100 µM,"Cc1cc(S(=O)(=O)Nc2cc(-c3nccs3)ccc2F)c(C)cc1Cl [Example 61, 4-chloro-N-(2-fluoro-5-(thiazol-2-yl)phenyl)-2,5-dimethylbenzenesulfonamide]"
11,> 100 µM,"Cc1cc(S(=O)(=O)Nc2cc(F)cc(-c3nccs3)c2)c(C)cc1Cl [Example 62, 4-chloro-N-(3-fluoro-5-(thiazol-2-yl)phenyl)-2,5-dimethylbenzenesulfonamide]"
12,> 100 µM,"Cc1cc(S(=O)(=O)Nc2ccc(F)c(-c3nccs3)c2)c(C)cc1Cl [Example 63, 4-chloro-N-(4-fluoro-3-(thiazol-2-yl)phenyl)-2,5-dimethylbenzenesulfonamide]"
13,1 µM,"Cc1cc(S(=O)(=O)Nc2cccc(-c3cc(C4CC4)[nH]n3)c2)c(C)cc1Cl [Example 64, 4-chloro-N-(3-(5-cyclopropyl-1H-pyrazol-3-yl)phenyl)-2,5-dimethylbenzenesulfonamide]"
14,12 µM,"CC[C@@H]1CCCN1C(=O)c1cccc(NS(=O)(=O)c2cc(C)c(Cl)cc2C)c1 [Example 65, (R)-4-chloro-N-(3-(2-ethylpyrrolidine-1-carbonyl)phenyl)-2,5-dimethylbenzenesulfonamide]"
15,1 µM,"Cc1cc(-c2cccc(NS(=O)(=O)c3cc(C)c(Cl)cc3C)c2)n[nH]1 [Example 66, 4-chloro-2,5-dimethyl-N-(3-(5-methyl-1H-pyrazol-3-yl)phenyl)benzenesulfonamide]"
16,14 µM,"Cc1cc(S(=O)(=O)Nc2ccc3ccn(C(C)C)c3c2)c(C)cc1Cl [Example 69, 4-chloro-N-(1-isopropyl-1H-indol-6-yl)-2,5-dimethylbenzenesulfonamide]"

row,AC50,Structure (SMILES)
1,49 µM,"Cc1nc2ccc(NS(=O)(=O)c3cc(C)c(Cl)cc3C)cc2o1 [Example 70, 4-chloro-2,5-dimethyl-N-(2-methylbenzo[d]oxazol-6-yl)benzenesulfonamide]"
2,> 100 µM,"Cc1nc2cc(NS(=O)(=O)c3cc(C)c(Cl)cc3C)ccc2s1 [Example 71, 4-chloro-2,5-dimethyl-N-(2-methylbenzo[d]thiazol-5-yl)benzenesulfonamide]"
3,> 100 µM,"Cc1c(Cl)cccc1S(=O)(=O)Nc1csc(-c2ccccc2)n1 [Example 154, 3-chloro-2-methyl-N-(2-phenylthiazol-4-yl)benzenesulfonamide]"
4,4 µM,"COc1ccccc1-c1nc(NS(=O)(=O)c2cc(C)c(Cl)cc2C)cs1 [Example 155, 4-chloro-N-(2-(2-methoxyphenyl)thiazol-4-yl)-2,5-dimethylbenzenesulfonamide]"
5,> 100 µM,"Cc1cc(S(=O)(=O)Nc2nc(-c3ccccc3)co2)c(C)cc1Cl [Example 157, 4-chloro-2,5-dimethyl-N-(4-phenyloxazol-2-yl)benzenesulfonamide]"
6,> 100 µM,"Cc1cc(S(=O)(=O)N[C@H]2CCN(c3ccccc3)C2)c(C)cc1Cl [Example 158, (S)-4-chloro-2,5-dimethyl-N-(1-phenylpyrrolidin-3-yl)benzenesulfonamide]"
7,> 100 µM,"Cc1cc(S(=O)(=O)Nc2nc(-c3ccccc3)cn2C)c(C)cc1Cl [Example 159, 4-chloro-2,5-dimethyl-N-(1-methyl-4-phenyl-1H-imidazol-2-yl)benzenesulfonamide]"
8,14 µM,"Cc1cc(S(=O)(=O)Nc2cccc(C(=O)N3CCC(F)(F)C3)c2)c(C)cc1Cl [Example 160, 4-chloro-N-(3-(3,3-difluoropyrrolidine-1-carbonyl)phenyl)-2,5-dimethylbenzenesulfonamide]"
9,31 µM,"Cc1cc(S(=O)(=O)N[C@H]2CCCN(c3ccccc3)C2)c(C)cc1Cl [Example 161, (S)-4-chloro-2,5-dimethyl-N-(1-phenylpiperidin-3-yl)benzenesulfonamide]"
10,13 µM,"Cc1cc(S(=O)(=O)Nc2cccc(C(=O)N3CCCC34CC4)c2)c(C)cc1Cl [Example 162, N-(3-(4-azaspiro[2.4]heptane-4-carbonyl)phenyl)-4-chloro-2,5-dimethylbenzenesulfonamide]"
11,37 µM,"CC(=O)N1CCC(c2nc(NS(=O)(=O)c3cc(C)c(Cl)cc3C)cs2)CC1 [Example 163, N-(2-(1-acetylpiperidin-4-yl)thiazol-4-yl)-4-chloro-2,5-dimethylbenzenesulfonamide]"
12,0.6 µM,"Cc1cc(S(=O)(=O)Nc2csc(C(=O)N3CCCC3)n2)c(C)cc1Cl [Example 166, 4-chloro-2,5-dimethyl-N-(2-(pyrrolidine-1-carbonyl)thiazol-4-yl)benzenesulfonamide]"
13,2 µM,"Cc1cc(S(=O)(=O)Nc2csc(C3CCOCC3)n2)c(C)cc1Cl [Example 167, 4-chloro-2,5-dimethyl-N-(2-(tetrahydro-2H-pyran-4-yl)thiazol-4-yl)benzenesulfonamide]"
14,> 100 µM,"Cc1cc(S(=O)(=O)Nc2cn(Cc3ccccc3)cn2)c(C)cc1Cl [Example 168, N-(1-benzyl-1H-imidazol-4-yl)-4-chloro-2,5-dimethylbenzenesulfonamide]"
15,> 100 µM,"Cc1cc(S(=O)(=O)Nc2cn(-c3ccccc3)cn2)c(C)cc1Cl [Example 169, 4-chloro-2,5-dimethyl-N-(1-phenyl-1H-imidazol-4-yl)benzenesulfonamide]"
16,> 10 µM,"Cc1cc(S(=O)(=O)Nc2cn(C)c(-c3ccccc3)n2)c(C)cc1Cl [Example 170, 4-chloro-2,5-dimethyl-N-(1-methyl-2-phenyl-1H-imidazol-4-yl)benzenesulfonamide]"
